Data from article PMC10321576, “Cyclic peptides target the aromatic cage of a PHD-finger reader domain to modulate epigenetic protein function” (Chemical Science, 2023).
Peptide text beside a SMILES is read from it.

Experiments:
Type in all cases: binding
ING2 PHD = target: T1, ING2 PHD (Homo sapiens, UniProt Q9H160); test: AlphaScreen displacement of H3 1-21K4me3-Bt; settings: once at least in duplicate (Fig. 3c)
T1 construct: ING2 PHD
Text: (§1) (14 pictures or pasted objects on this page, not shown here)

SPIN1 TTD = SPIN1 TTD (Homo sapiens, UniProt Q9Y657); test: AlphaScreen displacement of H3 1-21K4me3-Bt; settings: once at least in duplicate (Fig. 3c)
Sequence of SPIN1 TTD (Q9Y657 53-262 limits assumed): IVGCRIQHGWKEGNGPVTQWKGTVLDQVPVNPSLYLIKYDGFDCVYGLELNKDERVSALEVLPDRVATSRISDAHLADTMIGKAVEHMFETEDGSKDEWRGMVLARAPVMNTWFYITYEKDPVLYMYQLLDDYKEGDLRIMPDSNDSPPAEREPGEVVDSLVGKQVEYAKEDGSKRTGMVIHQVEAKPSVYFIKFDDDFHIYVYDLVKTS
Text: as §1

KDM5A PHD3 = target: T2, KDM5A PHD3 (Homo sapiens, UniProt P29375); test: AlphaScreen displacement of H3 1-21K4me3-Bt; settings: once at least in duplicate (Fig. 3c)
T2 construct: KDM5A PHD3
T2 sequence (P29375 1607-1661 limits assumed): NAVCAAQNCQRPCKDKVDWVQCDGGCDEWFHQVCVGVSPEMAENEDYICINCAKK
Text: as §1

TAF3 PHD = target: T3, TAF3 PHD (Homo sapiens, UniProt Q5VWG9); test: AlphaScreen displacement of H3 1-21K4me3-Bt; settings: once at least in duplicate (Fig. 3c)
T3 construct: TAF3 PHD
T3 sequence (Q5VWG9 865-915 limits assumed): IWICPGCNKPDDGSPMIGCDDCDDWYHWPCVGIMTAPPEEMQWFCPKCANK
Text: as §1

DIDO PHD = target: T4, DIDO PHD (Homo sapiens, UniProt Q9BTC0); test: AlphaScreen displacement of H3 1-21K4me3-Bt; settings: average of two independent experiments
T4 construct: DIDO PHD
T4 sequence (Q9BTC0 268-322 limits assumed): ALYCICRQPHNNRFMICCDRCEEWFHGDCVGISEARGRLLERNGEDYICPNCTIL
Text: as §1

full-length KDM7B = test: Pull-down from transfected HEK293T nuclear lysates; settings: 100-fold excess competitor
Experimental: HEK293T cells were transiently transfected with either a full-length wild-type KDM7B, or an aromatic cage inactivating mutant KDM7B (Y14A, W29A).[20]
Capture was performed with 1 μM probe incubated in pre-cleared lysate, recovered with streptavidin-conjugated magnetic beads, then washed and eluted by heating in denaturing solution. 100-fold excess OC9 or OC9 V10A were used as competitors. […] The upper left quadrant indicates >5-fold difference in recovered protein (based on T-test difference of mean log 2 (LFQ) values) and p-value threshold <0.05.

T1 sequence (Q9H160 212-261 limits assumed): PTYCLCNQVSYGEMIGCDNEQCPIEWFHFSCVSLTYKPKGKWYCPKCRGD

IC50 (ING2 PHD): > 5 µM
IC50 (SPIN1 TTD): > 2 µM
IC50 (KDM5A PHD3): > 5 µM
IC50 (TAF3 PHD): > 5 µM
AlphaScreen displacement IC50, DIDO PHD (DIDO PHD): no measurable affinity
IC50 (DIDO PHD): > 10 µM
Compound: CC(C)C[C@@H]1NC(=O)[C@H](Cc2ccc(O)cc2)NC(=O)[C@H](Cc2ccc(O)cc2)NC(=O)CSC[C@@H](C(N)=O)NC(=O)[C@H]([C@@H](C)O)NC(=O)[C@H](CCCNC(=N)N)NC(=O)[C@H](Cc2ccccc2)NC(=O)[C@H](C(C)C)NC(=O)[C@H](CO)NC(=O)[C@@H]2CCCN2C(=O)[C@H](Cc2ccc(O)cc2)NC(=O)[C@@H]2CCCN2C(=O)[C@H](Cc2c[nH]cn2)NC(=O)[C@H]([C@@H](C)O)NC1=O [OC9] (HELM PEPTIDE1{[O=C(C[*:3])[*:2]].Y.Y.L.T.H.P.Y.P.S.V.F.R.T.C.[am]}$PEPTIDE1,PEPTIDE1,1:R3-15:R3$$$V2.0)
competition of OC9-Bt pull-down of KDM7B (full-length KDM7B): substantially reduced KDM7B recovery
